Assay [1] concerns human-derived Caco-2 cells. The assay is described as follows: In vitro transwell screening in Caco-2 cells, barrier disrupted by Clostridium difficile toxin (TEER and FITC-dextran permeability). The settings on record: for TEER, indole metabolites (FIG. 22A): applied to the lumen, TOX; for integrated TEER (area under the curve, FIG. 21B): luminal, C. difficile toxin. It is filed as cell-based. From the text:
FIG. 20A-20B. In vitro screening of metabolites effective against leaky gut. FIG. 20A, Diagram of the in vitro transwell method used to evaluate efficacy of metabolites in protecting the leaky gut in human-derived Caco-2 cells. The luminal compartment represents the food side, and the basolateral the blood side. FIG. 20B, Transepithelial electrical resistance (TEER) measurements, and FITC-dextran measurements, evaluate the leakiness of the tight junction that regulates the pore (top) and leak (bottom) pathways of the gut. Ions (red), small molecules (blue), FITC-dextran (orange).
FIG. 21A-21D. Efficacy of tryptophan and vitamin B3 metabolites in protecting the gut barrier in vitro. FIG. 21A, TEER measurements of metabolites placed on luminal side of transwells for 72 hours. After 48 hours, the barrier was disrupted by the toxin of clostrium difficile (Cdiff). FIG. 21B, Integrated results of area under the curve using data from FIG. 21A. FIG. 21C, FITC-dextran permeability analysis of metabolites applied luminally. FIG. 21D, FITC-dextran permeability analysis of metabolites applied basolaterally.
FIG. 22A-22B. Efficacy of microbiota-derived indole metabolites in protecting the gut barrier. FIG. 22A, Integrated results of TEER measurements of metabolites placed on luminal side of transwells for 72 hours. After 48 hours, the barrier was disrupted by the toxin of clostrium difficile (Cdiff) FIG. 22B, FITC-dextran permeability analysis of metabolites from FIG. 22A applied luminally.
To perform in vitro screening of the metabolites effective against leaky gut, an in vitro transwell method was used. (FIG. 20A) The efficacy of these metabolites in protecting the leaky gut was analyzed in human-derived Caco-2 cells. Transepithelial electrical resistance (TEER) measurements evaluates the leakiness of the tight junction that regulates the pore (FIG. 20B, top) and leak (FIG. 20B, bottom) pathways of the gut. The higher the TEER, the less permeable the junction is to the movement of ions and small molecules. FITC-dextran is a large polysaccharide with a fluorescent moiety, typically used as a probe to assess the leakiness of the tight junction to large molecules like dextran. The faster the movement of FITC-dextran from lumen to blood, the greater the permeability.
(FIG. 21A) There was no effect of these metabolites on TEER when applied by themselves. After 48 h, the barrier was disrupted by the toxin of a common “bad” bacteria Clostridium difficile (Cdiff). TEER plummeted with this toxin (TOX, red line) compared to control (Veh, blue line). […] (FIG. 21A)
On the technique in general: Caco-2 cells form a polarised layer with tight junctions and transporters.

For another assay, the system named is ZO-1 (Tjp1) and Ocln. The assay is described as follows: Intestinal organoids treated with LPS and metabolites: tight junction (TJ) expression, RT-qPCR and immunostaining. It is filed as cell-based, mouse. The procedure:
Intestinal organoids were isolated as previously described (Das et al., 2015; Pearce et al., 2018). Briefly, crypts were isolated from small intestine of conventional house C57BL/6 male mice (Taconic Laboratories, Hudson, NY) by shaking in isolation buffer (2 mM EDTA in PBS), then, crypts were harvested, processed, and suspended in crypt culture medium (CCM), which consisted of advanced DMEM/F12 (Life Technologies, Carlsbad, CA) supplemented with serum-free B27 (1:50; Life Technologies), N2 (1:100; Life Technologies), N-acetylcysteine (1 mM; Sigma-Aldrich, St. Louis, MO), recombinant murine epithelial growth factor (EGF, 50 ng/ml; Peprotech, Rocky Hill, NJ), Noggin (100 ng/ml; Peprotech), R-Spondin (500 ng/ml; Peprotech), Glutamax-I supplement (1:100; Life Technologies), penicillin/streptomycin (500 μg/ml; Life Technologies), and HEPES ([…]; Life Technologies). Crypts were resuspended in 70% Matrigel (density ˜450 crypts per dome, 2 domes per well in 24-well plate) and allowed to solidify at 37° C. for 20 min. CCM (1.5 mL) was then added to each well. Cultures were incubated in a humidified incubator at 37° C., and CCM was changed daily. Intestinal organoid treatment with LPS and metabolites
(§1) We had 2 series of metabolite-treated organoid experiments, i.e., 1) organoid from conventional C57BL6 mice and 2) Ocln KO and littermate WT control as a gift from Prof. Jerrold Turner (Harvard University). […] Seeding is designated as day 0. On day 3 of culture, the existing media in the wells were completely removed before adding treatments. LPS (1 μg/mL) with or without metabolites, i.e., IPA (0.1 mM) (Li et al., 2021), IAM (200 μM) (Vyhlidalova et al., 2020), MNA (12 ng/ml) (Liu et al., 2015), CARN (20 mM) (Boldyrev et al., 2013) or ASA (1 μM) (Erez et al., 2011) were each added in CCM at known physiological concentrations, incubated for 48 hours, thereafter, organoid was harvested for RNA extraction, and paraformaldehyde fixation for immunostaining.
(§2) Total RNA was extracted from the intestinal organoids using a commercially available kit (RNeasy Microkit; Qiagen, MD, Cat. #74004) following manufacturer's instructions. mRNA samples were converted to cDNA using Bio-Rad's iScript Reverse Transcription Supermix for RT-qPCR (Bio-Rad Laboratories, Hercules, CA, Cat. #1708840). cDNA was then used for RT-qPCR (Mx3000P. Stratagene, La Jolla, CA) to analyze several genes using Maxima SYBR Green qPCR Master Mix (Thermo Fisher Scientific, Waltham, MA) and primers (Integrated DNA Technologies, Coralville, IA). Thermal profile for three-step cycling was 10 min at 95° C. for initial denaturation; then 40 cycles of 15 sec at 95° C. for denaturation, 30 sec at 65° C. for annealing, and 30 sec at 75° C. for extension. Primers used are as follows: β-actin (Actb), forward 5′-[…]-3′ (SEQ ID NO: 5), reverse 5′-[…]-3′ (SEQ ID NO: 6); ZO-1 (Tjp1), forward 5′-[…]-3′ (SEQ ID NO: 7), reverse 5′-[…]-3′ (SEQ ID NO: 8), Ocln, forward 5′-[…]-3′ (SEQ ID NO: 9), reverse 5′-[…]-3′ (SEQ ID NO: 10); Lyz1, forward 5′-ATGGCTACCGTGGTGTCAAG-3′ (SEQ ID NO: 11), reverse 5′-CGGTCTCCACGGTTGTAGTT-3′ (SEQ ID NO: 12); Tff3, forward 5′-TAATGCTGTTGGTGGTCCTG-3′ (SEQ ID NO: 13), reverse 5′-CAGCCACGGTTGTTACACTG-3′ (SEQ ID NO: 14). All samples were normalized to β actin expression. Gene expression levels are depicted as fold change relative to the control group.
(§3) Immunocytochemistry followed earlier work (Pearce et al., 2018). Briefly, organoids were extracted from Matrigel by using cell recovery solution (Corning, Cat. No. 354253), processed then fixed in 4% paraformaldehyde for 15 min and dehydrated with 70% ethanol and kept in 4° C. until embedded in paraffin. On the day of embedding, organoids were gently spun down to a pellet (250 g for 5 min), then the supernatant was removed, the pellet resuspended in agarose and embedded in paraffin. […]
In general terms: Real-time PCR tracks product formation cycle by cycle.

Assay [2] concerns Tff3 and Lyz1 (goblet and Paneth cells). The assay can be described thus: Organoids: goblet and Paneth cell transcripts (Tff3, Lyz1) and cell numbers. To be noted: enteroids. It is filed as cell-based, mouse. The procedure:
as §1, §2, §3

Each structure is given as a SMILES string.

As to `N#CCc1c[nH]c2ccccc12` [Indole-3-acetonitrile], in assay [1], the “TEER, indole metabolites (FIG. 22A)” value is “clearly protective against TOX-induced decreases in TEER”.

As to `O=C(O)c1c[nH]c2ccccc12` [Indole-3-carboxylic.acid, indole-3-carboxylic acid], in assay [1], the “TEER, indole metabolites (FIG. 22A)” value was “clearly protective against TOX-induced decreases in TEER”.

With `O=C(O)CCc1c[nH]c2ccccc12` [Indole-3-propionic.acid, indole-3-propionic acid], the “gene expression of Ocln” value in the assay on ZO-1 (Tjp1) and Ocln (ex vivo, in the presence of the barrier disruptor) was “increased gene expression of Ocln”. Moreover, the “TJ expression at the protein and mRNA levels” value in the assay on ZO-1 (Tjp1) and Ocln (in the presence of LPS (1 μg/mL), 48 hr) is given as “increased TJ expression”. For the same compound, in assay [2], the “goblet and Paneth cell transcripts and cell numbers” value was “reduced goblet and Paneth cell transcripts as well as cell numbers”. For the same compound, the “TEER, indole metabolites (FIG. 22A)” value in assay [1] is “clearly protective against TOX-induced decreases in TEER”. Regarding `O=C(O)C(O)Cc1c[nH]c2ccccc12` (stereo not shown) [Indolelactic.acid, indole-3-lactic acid], the “TEER, indole metabolites (FIG. 22A)” value in assay [1] was “clearly protective against TOX-induced decreases in TEER”. In the case of `NC(=O)c1ccc[n+]([C@@H]2O[C@H](COP(=O)([O-])OP(=O)(O)OC[C@H]3O[C@@H](n4cnc5c(N)ncnc54)[C@H](O)[C@@H]3O)[C@@H](O)[C@H]2O)c1` [NAD], the “integrated TEER (area under the curve, FIG. 21B)” value in assay [1] is “protected the cells from barrier disruption by TOX”. Still for that read-out and setting: the value for `NC(=O)c1cccnc1` [NAM, nicotinamide] was “protected the cells from barrier disruption by TOX”.

In the case of `NC(=O)c1ccc[n+]([C@@H]2O[C@H](CO)[C@@H](O)[C@H]2O)c1` [Nicotinamide.riboside, nicotinamide riboside], in assay [1], the “integrated TEER (area under the curve, FIG. 21B)” value was “protected the cells from barrier disruption by TOX”.
